For 2 compounds, MIC and Activity results are on record in ChEMBL document CHEMBL1155003, “Halicyclamine A, a marine spongean alkaloid as a lead for anti-tuberculosis agent” (2008).

In brackets after ≈: the same amount, converted by molar mass. Activity calls are given as the source filed them. The rule behind the calls is not given here.

Assay [1] deals with Mycobacterium tuberculosis. In words: Antitubercular activity against Mycobacterium bovis BCG under hypoxic condition after 14 days by MTT method. Type of assay: functional. To be noted: variant bovis BCG, 336 h. For orientation: Tetrazolium assays rely on reduction of a dye to a coloured formazan, in cell work by metabolically active cells.
The subject of assay [2] is Mycobacterium tuberculosis. In words: Antitubercular activity against Mycobacterium bovis BCG under aerobic condition after 7 days by MTT method. The assay is classed as functional. To be noted: variant bovis BCG, 168 h.
Assay [3] deals with Mycobacterium tuberculosis. In words: Bactericidal activity against Mycobacterium bovis BCG assessed as decrease in CFU at 10 ug/ml after 4 weeks. The assay is classed as functional, organism-based. The following applies: variant bovis BCG.

As a reminder, the MIC is the lowest concentration that inhibits growth of the organism. For `NNC(=O)c1ccncc1` [ISONIAZID], the figures for the MIC in assay [1] and in assay [2] were over 100 µg/mL and 0.03 µg/mL (≈ 0.219 µM), respectively.
With `C1=C2CCCC/C=C\C=C\CCN3CC[C@@H]4[C@H](CCCCCC/C=C\C=C/CCN(C2)C[C@H]14)C3` [HALICYCLAMINE A], in assay [3], the result was Active. The MIC in assay [1] and in assay [2] was 1 µg/mL (≈ 2.16 µM) throughout.
